Patent US4450165A, “Dihydropyridine compounds” (Yoshitomi Pharmaceutical Industries, Ltd., priority 1981, dated 1984)

Legend:
[1] = tested on: coronary blood flow (left coronary artery); experiment: Effect on coronary blood flow; assay type: in vivo, mongrel dogs; details: anesthetized dogs; for ED50 (effective dose in blood flow): injected into afferent cannula, increase in blood flow by nifedipine 10 μg taken as 100%; for Duration (time for which the half maximum response remained): coronary blood flow
Protocol: The perfused flow was measured by means of an electromagnitic flow-meter. The test compound was dissolved in an aqueous solution containing 15% ethanol and 15% polyethylene glycol, and injected into the afferent cannula. […] The duration was measured as the time for which the half maximum response remained.

[2] = tested on: spontaneously hypertensive rats; experiment: Hypotensive activity (systolic blood pressure, indirect tail cuff method); assay type: in vivo; details: Rattus norvegicus; oral; before and at 1, 3, 5 and 7 hours; five male spontaneously hypertensive rats; from dose response curve; read-out: ED30 (effective dose which showed the maximum hypotension by 30 mmHg)
Protocol: Five male spontaneously hypertensive rats were used for each experiment. Systolic blood pressure was determined using an indirect tail cuff method before and at 1, 3, 5 and 7 hours following the oral administration of the test compound.

[3] = tested on: vertebral blood flow (right vertebral artery); experiment: Effect on vertebral blood flow; assay type: in vivo, mongrel dogs; details: anesthetized dogs; for ED100 (effective dose in blood flow): injected into afferent tube, increase in blood flow by papaverine 100 μg taken as 100%; for Duration (time for which the half maximum response remained): vertebral blood flow
Protocol: Under the artificial ventilation, the right vertebral artery was perfused with the arterial blood from the left carotid artery through a short bypass. The perfused flow was measured by means of an electromagnetic flow-meter. The test compound was dissolved in an aqueous solution containing 0.1% dimethyl sulfoxide and 0.01% polyoxyethylene hydrogenated castor oil (cremophor EL®), and injected into the afferent tube. […] The duration was measured as the time for which the half maximum response remained.

**Q.** With `COC(=O)C1=C(C)NC(C)=C(C(=O)OCCN(C)Cc2ccccc2)C1c1cccc([N+](=O)[O-])c1.Cl` (stereo not drawn) [Nicardipine, 2,6-Dimethyl-4-(m-nitrophenyl)-1,4-dihydropyridine-3,5-dicarboxylic acid-3-methylester-5-[2-(N-benzyl-N-methylamino)ethyl]ester hydrochloride, reference compound] as the compound, how does the “ED50 (effective dose in blood flow)” value [1] read?
**A.** Its value is 0.5 µg.

**Q.** What about the “Duration (time for which the half maximum response remained)” value [1] of the same compound?
**A.** The value was 3.0 min.

**Q.** And the ED (30 mmHg) [2]?
**A.** Its ED (30 mmHg) is 5 mg/kg.

**Q.** And the “ED100 (effective dose in blood flow)” value [3]?
**A.** Its value is 0.4 µg.

**Q.** And the “Duration (time for which the half maximum response remained)” value [3]?
**A.** Its value is 1.0 min.

**Q.** How did the “ED50 (effective dose in blood flow)” value [1] turn out when `COC(=O)C1=C(C)NC(C)=C(C(=O)OC)C1c1ccccc1[N+](=O)[O-]` [Nifedipine] was run?
**A.** The value was 0.5 µg.

**Q.** `COc1ccc(Cc2nccc3cc(OC)c(OC)cc23)cc1OC` [Papaverine, reference compound] was tested. Which “ED100 (effective dose in blood flow)” value [3] did it give?
**A.** The value was 100 µg.

**Q.** For `COC(=O)C1=C(C)NC(C)=C(C(=O)OC(CN(C)Cc2ccccc2)c2ccco2)C1c1cccc([N+](=O)[O-])c1.Cl` (stereo not drawn) [Test Compound A, 2,6-Dimethyl-4-(m-nitrophenyl)-1,4-dihydropyridine-3,5-dicarboxylic acid-3-methylester-5-[2-(N-benzyl-N-methylamino)-1-(2-furyl)ethyl]ester hydrochloride], which “ED50 (effective dose in blood flow)” value [1] is on record?
**A.** The value was 1.5 µg.

**Q.** What about the “Duration (time for which the half maximum response remained)” value [1] of the same compound?
**A.** The value was 15.0 min.

**Q.** And the ED (30 mmHg) [2]?
**A.** Its ED (30 mmHg) is 1.3 mg/kg.

**Q.** And the “ED100 (effective dose in blood flow)” value [3]?
**A.** Its value is 1.0 µg.

**Q.** What about the “Duration (time for which the half maximum response remained)” value [3] of the same compound?
**A.** Its value is 11.0 min.

**Q.** How did the ED (30 mmHg) [2] turn out when `COC(=O)C1=C(C)NC(C)=C(C(=O)OC(CN(C)Cc2ccccc2)c2cccs2)C1c1cccc([N+](=O)[O-])c1.Cl` (stereo not drawn) [Test Compound B, 2,6-Dimethyl-4-(m-nitrophenyl)-1,4-dihydropyridine-3,5-dicarboxylic acid-3-methylester-5-[2-(N-benzyl-N-methylamino)-1-(2-thienyl)ethyl]ester hydrochloride] was run?
**A.** Its ED (30 mmHg) is 1 mg/kg.

**Q.** And the “ED100 (effective dose in blood flow)” value [3]?
**A.** Its value is 1.8 µg.

**Q.** And the “Duration (time for which the half maximum response remained)” value [3]?
**A.** The value was 22.5 min.
